# Results from patent US6525089B1, “Pharmaceutical composition containing decursin” (Binex Co., Ltd., priority 1998, dated 2003).
# Values joined by “and” are separate entries in the source; they are usually repeats but may differ in a detail not shown here. Equal values may be shown once. Read-outs that look alike come from different tables or passages of the source.
# How the values were obtained:
# [1] = tested on: U-937 cells; assay: Esterase activity test: naphthol AS-D chloroacetate esterase; format: cell-based, human; details: percentage of cells showing activity
# Protocol: To determine naphthol AS-D chloroacetate esterase activity, the cultured solution of U-937 cells was pelleted by centrifugation at 2000 rpm for 5 minutes, followed by the addition of 100 μl PBS to prepare a cell-concentrated solution. A drop of the cell solution was put on a slide glass and dried for more than 1 hour. Then 40 ml of deionized water was preheated at 37° C. 1 ml of […] solution was mixed with 1 ml of Fast Red Violet LB base solution and left for 2 minutes. The mixture was added to 40 ml of preheated deionized water. After the addition of 5 ml of TRIZMAL TM 6.3) buffer solution (Sigma Co. T-3128) and 1 ml of naphthol AS-D chloroacetate solution, the resulting solution, which was turned to red color was poured on a petri dish. The cells on a slide glass were fixed with citrate-acetone-formaldehyde solution, (CAF solution) at room temperature. The cells were soaked in the previously prepared solution and incubated at 37° C. for 30 minutes at a dark place. The cells were completely washed with deionized water for more than 2 minutes and counterstained with hematoxylin solution for 2 minutes, washed with tap water and dried in the air. After completely dried, the cells were observed under a microscope to calculate the reddish cell numbers by percentage.
# (§1) Thus it was considered that the cells were differentiated into macrophage.like cells by the action of decursin.
# [2] = tested on: U-937 cells; assay: Esterase activity test: α-naphthyl acetate esterase; format: cell-based, human; details: percentage of cells showing activity
# Protocol: To determine α-naphthyl acetate esterase activity in the esterase activity test, the cultured solution of U-937 cells was pelleted by centrifugation at 2000 rpm for 5 minutes, followed by the addition of 100 μl PBS to prepare a cell-concentrated solution. A drop of the cell solution was put on a slide glass and dried for more than 1 hour. Then 40 ml of deionized water was preheated at 37° C. 1 ml of […] solution was mixed with 1 ml of Fast Blue BB base solution and left for 2 minutes. The mixture, being turned to yellow color with thick brown, was added to 40 ml of the preheated deionized water. After the addition of 5 ml of TRIZMAL TM 7.6 buffer solution (Sigma Co. 870-2) and 1 ml of α-naphthyl acetate solution, the resulting solution, which was turned to green color, was poured into a petri dish. The cells on a slide glass were fixed with citrate-acetone-formaldehyde solution (CAF solution) at room temperature. The cells were soaked in the previously prepared solution and incubated at 37° C. for 30 minutes at a dark place. The cells were completely washed with deionized water for more than 2 minutes and counterstained with hematoxylin solution for 2 minutes, washed with tap water and dried in the air. After completely dried, the cells were observed under a microscope to determine the blackish cell numbers.
# as §1
# [3] = tested on: cell lines of uterine cancer, leukemia, hepatoma or large intestine cancer; details: cited from earlier work
# [4] = format: in vivo, rat; details: individual rats 1-4, start 200 g, four days after treatment
# Protocol: A total of 10 male SD rats (body weight: 200 g) were used for this experiment. […] The animals were sacrificed and again weighed four days after treatment. […] Blood samples were also taken and left to sit for 30 minutes to isolate the sera, which was used to determine BUN, creatinine and sGPT values as markers of […].
# [5] = tested on: ICR mice; assay: Urinary test, alloxan-treated mice; format: in vivo; details: Alloxan + decursin group (50 mg/kg orally, 10 days)
# Protocol: (§2) 2 days after ICR mice were given alloxan (75 mg/kg, i.v.), their glucose levels at fasting were measured to select high-glucose mice. The high-glucose mice were divided into two groups; physiological saline solution was given to one group, while decursin was orally administered to the other group at a dose of 50 mg/kg for 10 days. The alloxan-free group was also orally given physiological saline solution for 10 days. The body weighs were checked periodically, together with urinary tests. To isolate their sera and kidney, mice were slightly anesthetized with ether and their abdomens were dissected. The blood samples were collected from heart to isolate the sera. The kidney was perfused with 0.9% NaCl and isolated after removal of the blood. Then the weight of right kidney was measured. Further, to measure the protein amount from the kidney tissues, these tissues were assayed according to the Bradford method using Bio-Rad protein assay kit in the presence of bovine serum albumin as a reference standard. To measure the MDA in the kidney tissues, 0.4 ml of 10% sodium dodecylsulfate was added to 0.5 ml of 10% kidney-tissue homogenization solution and left in water bath at 37° C. for 30 minutes; With the subsequent addition of 0.1N-HCl (2 ml) and 0.67% TBA (1 ml), the mixture was voltexed and left in boiling water bath for 30 minutes. The mixture was further cooled in ice bath for 2˜3 minutes to stop the reaction. Then 2 ml of n-butanol was added to the mixture, stirred well and centrifuged at 3000 rpm for 10 minutes. The supernatant was collected to measure the absorbance at 532 nm. 10 μg/ml tetraethoxypropane (TEP) was employed as a reference standard. To measure the MDA in sera, 0.8% thiobarbituric acid (TBA) was added to 0.5 ml of sera and left in boiling water bath for 30 minutes. The mixture was further cooled in ice bath for 2˜3 minutes to stop the reaction. The supernatant was collected to measure the absorbance at 532 nm. 10 μg/ml TEP was employed as a reference standard.
# [6] = tested on: ICR mice; assay: BUN and MDA in blood and MDA in renal tissue, alloxan-treated mice; format: in vivo; details: alloxan 75 mg/kg i.v. + decursin 50 mg/kg orally for 10 days
# Protocol: as §2
# Mice were orally given decursin at a dose of 50 mg/kg for 10 days continuously. Then various parameters such as BUN and MDA in the blood as a marker of renal failure were measured, together with urinary test. When […] (table 4), the BUN value of single alloxan-treated group, 17.4±3.7 mg/dl was recovered to the normal level (4.8±0.6 mg/dl) by the treatment of decursin. The MDA value of single alloxan-treated group, 0.51±0.07, was reduced to 0.36±0.03 by the treatment of decursin, which was similar to a normal control group. Thus it was noted that the damage in the kidney was completely recovered. Since the reduction of both MDA values in the blood and kidney tissues may be clinically reasonable and desirable, the MDA value in the kidney tissues was measured. As a result, the MDA value in the kidney tissues of a single alloxan-treated group, 13.24±5.93, was reduced to 5.63±0.99 by the treatment of decursin, which was lower than that of normal control group (8.44±1.01).
compound,measurement,setting,value
CC(C)=CC(=O)O[C@H]1Cc2cc3ccc(=O)oc3cc2OC1(C)C [decursin],Naphtol AS-D chloroacetate esterase Activity (%),[1],0.0%
same,α-Naphtylacetate esterase Activity (%),[2],83%
same,α-Naphtylacetate esterase Activity (%),[2]; listed as Decursin,83.3 ± 3.0%
same,concentration at which decursin has toxicity on cancer cell lines,[3],more than 10 ppm
same,Body weight,[4]; post-treatment group (decursin after cisplatin),190 g and 185 g and 180 g (2×)
same,Body weight,[4]; pre-treatment group (decursin before cisplatin),184 g and 190 g and 180 g (2×)
same,Urinary test Bilirubin: count in category +,[5],2
same,Urinary test Bilirubin: count in category −,[5],8
same,Urinary test Glucose: count in category +,[5],1
same,Urinary test Glucose: count in category −,[5],9
same,Urinary test Ketone: count in category −,[5],10
same,Urinary test Nitrite: count in category −,[5],10
same,Urinary test Occult blood: count in category +,[5],2
same,Urinary test Occult blood: count in category −,[5],8
same,Urinary test Protein: count in category −,[5],10
same,Urinary test Specific gravity: count in category −,[5],10
same,Urinary test Urobilinogen: count in category +,[5],1
same,Urinary test Urobilinogen: count in category −,[5],9
same,Urinary test pH: count in category −,[5],10
same,BUN,[6],4.8 ± 0.6 mg/dL
same,MDA in blood,[6],0.36 ± 0.03 µg/mL
same,MDA in renal tissue,[6],5.63 ± 0.99 µg/g
